Source: patent US20230233559A1, “COMBINATION OF ZIDOVUDINE AND FLUOROQUINOLONE ANTIBIOTIC” (HELPERBY THERAPEUTICS LIMITED, priority 2019, published 2023)

What was measured:
Format in all cases: cell-based
Conditions in all cases: fluoroquinolone alone
[1] = test system: BAA2470 NDM-1 Klebsiella pneumoniae; assay: Chequerboard MIC, log phase BAA2470
Experimental: (§1) The chequerboard method used in Example 1 followed the protocols detailed in Antimicrob Chemo (2013) 68, 374-384. Zidovudine and ciprofloxacin were obtained from commercially available sources. The bacteria used were BAA2469 NDM-1 Escherichia coli, BAA2470 NDM-1 Klebsiella pneumoniae, BAA2471 NDM-1 Escherichia coli, BAA2472 NDM-1 Klebsiella pneumoniae, and NCTC13443 NDM-1 Klebsiella pneumoniae. All strains were obtained from a commercial source and log phase growth of the bacteria was carried out using methods known in the art.
(§2) The effects of the combination of the present invention were examined by calculating the fractional inhibitory concentration index (FICI) of each combination, as follows:
(§3) (MIC of drug A, tested in combination)/(MIC of drug A, tested alone)+(MIC of drug B, tested in combination)/(MIC of drug B, tested alone).
(§4) The interaction of the combination was defined as showing synergy if the FICI was ≤0.5, no interaction if the FICI was >0.5 but <4.0 and antagonism if the FICI was >4.0.
(§5) The method and bacterial strains were identical to Example 1. Zidovudine and levofloxacin were obtained from commercially available sources. The effects of the combination of the present invention were examined by calculating the MIC for each drug alone and in combination in the same manner as Example 1.
as §5, with “moxifloxacin” for “levofloxacin”

[2] = test system: BAA2469 NDM-1 Escherichia coli; assay: Chequerboard MIC, log phase BAA2469
Experimental: as §1, §2, §3, §4, §5
as §5, with “moxifloxacin” for “levofloxacin”

[3] = test system: BAA2472 NDM-1 Klebsiella pneumoniae; assay: Chequerboard MIC, log phase BAA2472
Experimental: as §1, §2, §3, §4, §5
as §5, with “moxifloxacin” for “levofloxacin”

[4] = test system: NCTC13443 NDM-1 Klebsiella pneumoniae; assay: Chequerboard MIC, log phase NCTC13443
Experimental: as §1, §2, §3, §4, §5
as §5, with “moxifloxacin” for “levofloxacin”

[5] = test system: BAA2471 NDM-1 Escherichia coli; assay: Chequerboard MIC, log phase BAA2471
Experimental: as §1, §2, §3, §4, §5
as §5, with “moxifloxacin” for “levofloxacin”

SMILES	MIC [1] [µg/mL]	MIC [2] [µg/mL]	MIC [3] [µg/mL]	MIC [4] [µg/mL]	MIC [5] [µg/mL]
O=C(O)c1cn(C2CC2)c2cc(N3CCNCC3)c(F)cc2c1=O [Ciprofloxacin, 1-cyclopropyl-6-fluoro-1,4-dihydro-4-oxo-7-(1-piperazinyl)-3-quinolinecarboxylic acid]	8	64	64	64	> 64
C[C@H]1COc2c(N3CCN(C)CC3)c(F)cc3c(=O)c(C(=O)O)cn1c23 [Levofloxacin, (2S)-7-fluoro-2-methyl-6-(4-methylpiperazin-1-yl)-10-oxo-4-oxa-1-azatricyclo[7.3.1.0^5,13]trideca-5(13),6,8,11-tetraene-11-carboxylic acid]	8	8	32	32	32
COc1c(N2C[C@@H]3CCCN[C@@H]3C2)c(F)cc2c(=O)c(C(=O)O)cn(C3CC3)c12 [Moxifloxacin, 7-[(4aS,7aS)-1,2,3,4,4a,5,7,7a-octahydropyrrolo[3,4-b]pyridin-6-yl]-1-cyclopropyl-6-fluoro-8-methoxy-4-oxoquinoline-3-carboxylic acid]	32	16	128	128	128
